Measurements: PubChem BioAssay AID1963844 (Molecular Pharmacology Branch, DTP, NCI, 2024)
pIC50: −log10 of the molar value.

System: 422866-222-R5-J1-PDC complex spheroid viability
Assay: Anticancer human tumor 422866-222-R5-J1-PDC patient-derived pancreatic adenocarcinoma cell line growth inhibition [POLQ]
Details: for pIC50: curve of first compound; for viability, T/C: stronger effect = lower value
Outline: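 Patient-derived tumour cells were co-cultured with HUVEC and mesenchymal stem cells as multicellular spheroids at 37 °C. They were treated with POLQ inhibitors (novobiocin, ART-558, RP6685) alone or combined with other agents. Top concentrations were at or near clinical Cmax (otherwise 10 microM; SN-38 at 1 microM), decreasing in half-log steps.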

[1] = second compound 0.0316 µM, first compound 0.0316 µM
[2] = second compound 0.0316 µM, first compound 0.1 µM
[3] = second compound 0.0316 µM, first compound 0.316 µM
[4] = second compound 0.0316 µM, first compound 1 µM
[5] = second compound 0.0316 µM, first compound 3.16 µM
[6] = second compound 0.0316 µM, first compound 10 µM
[7] = second compound 0.1 µM, first compound 0.0316 µM
[8] = second compound 0.1 µM, first compound 0.1 µM
[9] = second compound 0.1 µM, first compound 0.316 µM
[10] = second compound 0.1 µM, first compound 1 µM
[11] = second compound 0.1 µM, first compound 3.16 µM
[12] = second compound 0.1 µM, first compound 10 µM
[13] = second compound 0.316 µM, first compound 0.0316 µM
[14] = second compound 0.316 µM, first compound 0.1 µM
[15] = second compound 0.316 µM, first compound 0.316 µM
[16] = second compound 0.316 µM, first compound 1 µM
[17] = second compound 0.316 µM, first compound 3.16 µM
[18] = second compound 0.316 µM, first compound 10 µM
[19] = second compound 1 µM, first compound 0.0316 µM
[20] = second compound 1 µM, first compound 0.1 µM
[21] = second compound 1 µM, first compound 0.316 µM
[22] = second compound 1 µM, first compound 1 µM
[23] = second compound 1 µM, first compound 3.16 µM
[24] = second compound 1 µM, first compound 10 µM
[25] = second compound 3.16 µM, first compound 0.0316 µM
[26] = second compound 3.16 µM, first compound 0.1 µM
[27] = second compound 3.16 µM, first compound 0.316 µM
[28] = second compound 3.16 µM, first compound 1 µM
[29] = second compound 3.16 µM, first compound 3.16 µM
[30] = second compound 3.16 µM, first compound 10 µM
[31] = second compound 10 µM, first compound 0.0316 µM
[32] = second compound 10 µM, first compound 0.1 µM
[33] = second compound 10 µM, first compound 0.316 µM
[34] = second compound 10 µM, first compound 1 µM
[35] = second compound 10 µM, first compound 3.16 µM
[36] = second compound 10 µM, first compound 10 µM
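Further: spheroids exposed to compounds for one week before readout.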
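Wherever viability, T/C is given: percent of DMSO vehicle wells luminescence so 100% = untreated viability.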

Compound `CCCS(=O)(=O)Nc1ccc(F)c(C(=O)c2c[nH]c3ncc(-c4ccc(Cl)cc4)cc23)c1F` + COC1C(OC(N)=O)C(O)C(Oc2ccc3c(O)c(NC(=O)c4ccc(O)c(CC=C(C)C)c4)c(=O)oc3c2C)OC1(C)C has a pIC50 (second compound 0.0316 µM) of less than 5.00, a pIC50 (second compound 0.1 µM) of less than 5.00 and a pIC50 (second compound 0.316 µM) of less than 5.00. The pIC50 (second compound 1 µM) was less than 5.00, the pIC50 (second compound 3.16 µM) was less than 5.00 and the pIC50 (second compound 10 µM) was less than 5.00. It also gave a viability, T/C [1] of 96.1%, a viability, T/C [2] of 129% and a viability, T/C [3] of 132%. For the same compound, the viability, T/C [4] was 162%, the viability, T/C [5] was 236% and the viability, T/C [6] was 99%. The viability, T/C [7] was 119%, the viability, T/C [8] was 118% and the viability, T/C [9] was 143%. It also gave a viability, T/C [10] of 149%, a viability, T/C [11] of 198% and a viability, T/C [12] of 86.6%. It also gave a viability, T/C [13] of 98.2%, a viability, T/C [14] of 97.8% and a viability, T/C [15] of 129%. The viability, T/C [16] was 177%, the viability, T/C [17] was 173% and the viability, T/C [18] was 107%. It also gave a viability, T/C [19] of 101%, a viability, T/C [20] of 114% and a viability, T/C [21] of 129%. For the same compound, the viability, T/C [22] was 167%, the viability, T/C [23] was 217% and the viability, T/C [24] was 90.6%. It also gave a viability, T/C [25] of 101%, a viability, T/C [26] of 115% and a viability, T/C [27] of 129%. It also gave a viability, T/C [28] of 173%, a viability, T/C [29] of 195% and a viability, T/C [30] of 111%. The viability, T/C [31] was 93.9%, the viability, T/C [32] was 121% and the viability, T/C [33] was 145%. The viability, T/C [34] was 161%, the viability, T/C [35] was 198% and the viability, T/C [36] was 93.4%.

`CC1COCCN1c1cc(C2(S(C)(=N)=O)CC2)nc(-c2ccnc3[nH]ccc23)n1` (stereo not drawn) + Nc1ccc(C#CCN(C(=O)Cc2ncc(C(F)(F)F)cc2C(F)(F)F)c2ccc(F)cc2)nn1 showed a pIC50 (second compound 0.0316 µM) of 5.61, a pIC50 (second compound 0.1 µM) of 5.74 and a pIC50 (second compound 0.316 µM) of 5.76. It also gave a pIC50 (second compound 1 µM) of 5.67, a pIC50 (second compound 3.16 µM) of 5.76 and a pIC50 (second compound 10 µM) of 5.72. The viability, T/C [1] was 105%, the viability, T/C [2] was 81.7% and the viability, T/C [3] was 80.9%. For the same compound, the viability, T/C [4] was 64.5%, the viability, T/C [5] was 38% and the viability, T/C [6] was 42.6%. The viability, T/C [7] was 92%, the viability, T/C [8] was 96.5% and the viability, T/C [9] was 95.3%. For the same compound, the viability, T/C [10] was 58.9%, the viability, T/C [11] was 41.4% and the viability, T/C [12] was 42.2%. The viability, T/C [13] was 89.8%, the viability, T/C [14] was 96% and the viability, T/C [15] was 89.7%. It also gave a viability, T/C [16] of 65.6%, a viability, T/C [17] of 32.5% and a viability, T/C [18] of 34%. The viability, T/C [19] was 107%, the viability, T/C [20] was 112% and the viability, T/C [21] was 92.4%. The viability, T/C [22] was 70.5%, the viability, T/C [23] was 38.7% and the viability, T/C [24] was 28.2%. The viability, T/C [25] was 87.3%, the viability, T/C [26] was 108% and the viability, T/C [27] was 98.8%. It also gave a viability, T/C [28] of 57.2%, a viability, T/C [29] of 40.8% and a viability, T/C [30] of 43.5%. The viability, T/C [31] was 109%, the viability, T/C [32] was 117% and the viability, T/C [33] was 102%. For the same compound, the viability, T/C [34] was 65.9%, the viability, T/C [35] was 37.8% and the viability, T/C [36] was 31.8%.

`C=CCn1c(=O)c2cnc(Nc3ccc(N4CCN(C)CC4)cc3)nc2n1-c1cccc(C(C)(C)O)n1` + COC1C(OC(N)=O)C(O)C(Oc2ccc3c(O)c(NC(=O)c4ccc(O)c(CC=C(C)C)c4)c(=O)oc3c2C)OC1(C)C was tested, and the pIC50 (second compound 0.0316 µM) was 6.38, the pIC50 (second compound 0.1 µM) was 6.52 and the pIC50 (second compound 0.316 µM) was 6.31. It also gave a pIC50 (second compound 1 µM) of 6.33, a pIC50 (second compound 3.16 µM) of 6.27 and a pIC50 (second compound 10 µM) of 6.45. The viability, T/C (second compound 0.0316 µM, first compound 0.00316 µM) was 91.1%, the viability, T/C (second compound 0.0316 µM, first compound 0.01 µM) was 106% and the viability, T/C [1] was 96.3%. The viability, T/C [2] was 93.2%, the viability, T/C [3] was 54.3% and the viability, T/C [4] was 36.6%. The viability, T/C (second compound 0.1 µM, first compound 0.00316 µM) was 98.8%, the viability, T/C (second compound 0.1 µM, first compound 0.01 µM) was 105% and the viability, T/C [7] was 86.2%. It also gave a viability, T/C [8] of 79.4%, a viability, T/C [9] of 46.5% and a viability, T/C [10] of 34.5%. It also gave a viability, T/C (second compound 0.316 µM, first compound 0.00316 µM) of 97.4%, a viability, T/C (second compound 0.316 µM, first compound 0.01 µM) of 101% and a viability, T/C [13] of 103%. For the same compound, the viability, T/C [14] was 84.4%, the viability, T/C [15] was 59.1% and the viability, T/C [16] was 36.6%. The viability, T/C (second compound 1 µM, first compound 0.00316 µM) was 94.8%, the viability, T/C (second compound 1 µM, first compound 0.01 µM) was 105% and the viability, T/C [19] was 93.8%. For the same compound, the viability, T/C [20] was 89.5%, the viability, T/C [21] was 58% and the viability, T/C [22] was 34.6%. For the same compound, the viability, T/C (second compound 3.16 µM, first compound 0.00316 µM) was 96.7%, the viability, T/C (second compound 3.16 µM, first compound 0.01 µM) was 100% and the viability, T/C [25] was 91.5%. For the same compound, the viability, T/C [26] was 79%, the viability, T/C [27] was 59.1% and the viability, T/C [28] was 39.7%. The viability, T/C (second compound 10 µM, first compound 0.00316 µM) was 95.7%, the viability, T/C (second compound 10 µM, first compound 0.01 µM) was 84.3% and the viability, T/C [31] was 98.2%. For the same compound, the viability, T/C [32] was 79.9%, the viability, T/C [33] was 51.9% and the viability, T/C [34] was 38.9%.

`CCc1cc2c(N3CCc4c(cc(Cn5ccnc5)cc4-c4cn(C)nc4C(F)(F)F)C3=O)ccnc2c(OC)n1` + Cc1cccc(N(C)C(=O)C2C(O)CCN2c2nc(C)cc(C(F)(F)F)c2C#N)c1 was tested, and the pIC50 (second compound 0.0316 µM) was less than 5.00, the pIC50 (second compound 0.1 µM) was less than 5.00 and the pIC50 (second compound 0.316 µM) was less than 5.00. For the same compound, the pIC50 (second compound 1 µM) was less than 5.00, the pIC50 (second compound 3.16 µM) was less than 5.00 and the pIC50 (second compound 10 µM) was less than 5.00. The viability, T/C [1] was 96.1%, the viability, T/C [2] was 99.6% and the viability, T/C [3] was 93.3%. It also gave a viability, T/C [4] of 88.2%, a viability, T/C [5] of 87.6% and a viability, T/C [6] of 91.8%. For the same compound, the viability, T/C [7] was 88.4%, the viability, T/C [8] was 87.9% and the viability, T/C [9] was 83.5%. The viability, T/C [10] was 112%, the viability, T/C [11] was 91.4% and the viability, T/C [12] was 99.2%. It also gave a viability, T/C [13] of 90.7%, a viability, T/C [14] of 84.7% and a viability, T/C [15] of 91.7%. It also gave a viability, T/C [16] of 96.3%, a viability, T/C [17] of 96.2% and a viability, T/C [18] of 112%. It also gave a viability, T/C [19] of 73%, a viability, T/C [20] of 80.2% and a viability, T/C [21] of 86.1%. For the same compound, the viability, T/C [22] was 98.2%, the viability, T/C [23] was 97.7% and the viability, T/C [24] was 114%. For the same compound, the viability, T/C [25] was 87.4%, the viability, T/C [26] was 87.6% and the viability, T/C [27] was 89.5%. The viability, T/C [28] was 85.4%, the viability, T/C [29] was 108% and the viability, T/C [30] was 115%. It also gave a viability, T/C [31] of 100%, a viability, T/C [32] of 94.2% and a viability, T/C [33] of 90.7%. For the same compound, the viability, T/C [34] was 93.5%, the viability, T/C [35] was 107% and the viability, T/C [36] was 105%.
